In patent US20260294863A1, “METHOD OF TREATING FIBROTIC-RELATED CONDITION” (YISSUM RESEARCH DEVELOPMENT COMPANY OF THE HEBREW …, priority 2023, published 2026):
“Also recorded” adds a separate entry of the source.

Columns and labels:
[1] = test system: BzATP/LPS-activated microglia; assay: Gene expression (RNA-seq) in BzATP/LPS-activated microglia; type: cell-based, Balb/C mice; conditions: 1×10^−10 M, 8 hrs after BzATP/LPS
Experimental: (§1) Experiments were performed on primary microglial cells isolated from brains of neonatal Balb/C mice as previously described (Reichert and Rotshenker, 2003). The brains were stripped of their meninges and enzymatically dissociated. Cells were plated on Poly-L-lysine coated flasks for one week, re-plated for 1- to 2-hr on bacteriological plates and non-adherent cells were washed away. Microglia were propagated by incubation in 20% of medium, conditioned by the L-cell line that produces mouse-CSF. They were identified by morphology and positive immune-reactivity to P2y12, F4/80, complement receptor-3 and Galectin-3/MAC-2 (Reichert and Rotshenker 2003; Gitik et al. 2011).
Ladostigil (1×10^−10 M) was added to microglia for 2 hrs before BzATP/LPS. Cells were harvested before and 8 hr after addition of BzATP/LPS. Total RNA was extracted using the RNeasy Plus Universal Mini Kit (QIAGEN) according to the manufacturer's protocol. Total RNA samples (1 μg RNA) were enriched for mRNAs by pull-down of poly A. Libraries were prepared using the KAPA Stranded mRNA-Seq Kit according to the manufacturer's protocol and sequenced using Illumina NextSeq 500 to generate 85 bp single-end reads (total 25-30 million reads per sample) as described in Zohar et al. (2021).
Next-generation sequencing data underwent quality control using FastQC. They were then preprocessed using Trimmomatic (Bolger et al. 2014) and aligned to the reference genome GRCm38 with the STAR aligner (Dobin et al. 2013) using default parameters. Genomic loci were annotated using GENCODE version M25 (Frankish et al. 2019). Genes with low expression were filtered out of the dataset by setting a threshold of a minimum of 2 counts-per-million in three samples.
Pair-wise differential analyses were performed between all […] BzATP/LPS time points and genes with an FDR <0.01 were considered.

TNFAIP3 = assay: Levels of TNFAIP3 protein in microglial cytoplasm; type: cell-based, Balb/C mice
Experimental: as §1
The addition of BzATP/LPS to microglia increased cytoplasmic levels of TNFαIP3 protein and nuclear ERGR1 protein.

TNFα = TNFα in bronchial fluid, bleomycin-induced lung fibrosis (ELISA); type: in vivo, C57BL/6JOlaHsd mice; conditions: ladostigil, bleomycin-induced lung fibrosis
Experimental: (§2) The animal model of bleomycin-induced lung fibrosis is widely used to characterize the potential inhibitory effect of newly developed drugs (Distler et al. 2019). Experiments were performed in C57BL/6JOlaHsd male and female mice aged 12-13 weeks. Male mice weighed 23-27.3 g and female mice, 19.4-21.1 g. They were housed under pathogen-free conditions, up to 6 per cage, in IVC cages under a controlled temperature of 22-24° C., humidity and alternating 12-h light/dark cycles and provided with food and water ad libitum. In order to minimize the stress of daily injection, ladostigil (5 mg/Kg/day) was administered by micro-osmotic pumps, implanted subcutaneously under ketamine/xylazine anesthesia, 5 days before administration of bleomycin, and delivered for 3 weeks to mice of each sex. Saline (2-3/sex) and bleomycin controls were anesthetized as described above. Bleomycin solution (0.25 mg/kg in 50 μl) was instilled into the lumen of the trachea as shown in a video by Ehrentraut et al. (2019). […] TNFα and IL-6 in the bronchial fluid lavage was measured by ELISA as described in the preceding section.
(§3) Experiments were performed in C57BL/6JOlaHsd male mice aged 12-13 weeks as described for ladostigil. […] Fibrosis was measured by staining with Sirius red as described for ladostigil. TNFα and IL-6 in the bronchial fluid lavage was measured by ELISA as described for ladostigil.

IL-6 = IL-6 in bronchial fluid, bleomycin-induced lung fibrosis (ELISA); type: in vivo, C57BL/6JOlaHsd mice; conditions: ladostigil, bleomycin-induced lung fibrosis
Experimental: as §2, §3

skin sclerosis = assay: Dermal and hypodermal thickness in bleomycin-induced skin sclerosis; type: in vivo, C57BL/6 mice; conditions: ladostigil 10 mg/kg/day + bleomycin; p<0.05
Experimental: Male C57BL/6 mice aged 8 weeks were housed under pathogen-free conditions at a controlled temperature of 22-24° C., humidity and alternating 12-h light/dark cycles and provided with food and water ad libitum. Skin sclerosis was induced as described by Ravanetti et al, (2020). A small incision was made in the skin at the back caudal to the scapulae and subcutaneous pocket was created into which an Alzet micro-osmotic pump was implanted, and the incision closed with two stiches and a surgical clip. The pumps contained bleomycin, (delivered at the rate of 60 U/kg body weight) or saline (control) and were removed 10 days after implantation. The mice were monitored daily until they recovered completely and weighed twice weekly from the beginning of the experiment.
Ladostigil (10 mg/kg/day) was administered in the drinking fluid to 10 mice, housed 2/cage, from 3 days before bleomycin pump installation until the end of the experiment. The fluid intake of the mice was measured daily. The dose of ladostigil was adjusted accordingly. Bleomycin alone, (10 mice) and saline controls (6 mice) received regular drinking fluid.
Skin was harvested on the gluteal region to avoid dermal fibrosis artifact due to proximity to the site of implant. For histological assessment, the samples were dehydrated in a graded ethanol series, clarified in xylene, and paraffin embedded. They were mounted on slides and paraffin was removed. Sections of 5 μm thickness were cut with a rotary microtome and stained with hematoxylin and eosin (H&E)

With `C#CCN[C@@H]1CCc2ccc(OC(=O)N(C)CC)cc21` [Ladostigil, 6-(N-ethyl, N-methylcarbamyloxy)-N propargyl-1 (R)-aminoindan hemitartrate] the Egr1 gene expression [1] was “downregulated”, the Egr2 gene expression [1] was “downregulated” and the Mmp12 gene expression [1] was “downregulated”. The “TNFαIP3 (A20) gene expression” value [1] was “up-regulated”, the Timp1 gene expression [1] was “downregulated” and the “number of genes significantly altered in expression” value [1] was 25 genes. For the same compound, the “Mean conc. ± SEM of TNFAIP3 in microglial cytoplasm” value (TNFAIP3; BzATP/LPS, ladostigil 1×10^−10 M, Medium 19.8 ± 0.6) was 28.8 ± 0.9, the “change in cytoplasmic TNFαIP3 protein” value (TNFAIP3; microglia, ladostigil 1×10^−10 M on top of BzATP/LPS) was “further increase” and the “TNFα in bronchial fluid” value (TNFα) was “generally not affected; also recorded: did not reduce”. The “IL-6 in bronchial fluid” value (IL-6) was “generally not affected; also recorded: did not reduce”, the dermal thickness (skin sclerosis) was “significant reduction of dermal thickness” and the hypodermal thickness (skin sclerosis) was “increase of hypodermal thickness”.
